Values of other authors, collected in patent publication US8278351B2, “Natural marine source phospholipids comprising polyunsaturated fatty acids and their applications” (priority 2001, dated 2012).

What was measured:
mitochondrial DNA = conditions: treated group versus control; brain and cochlea
[1] = tested on: mitochondrial membrane potentials; conditions: experimental group, peripheral blood
memory impairment = conditions: 300 mg. daily, three months
Alzheimer's Disease [2] = conditions: 300 mg. per day for six weeks, 35 patients
cognitive decline = conditions: 300 mg. per day for six months, versus placebo
[3] = tested on: Obsessive Compulsive Disorder; conditions: week six, compared to placebo period
Alzheimer's Disease [4] = tested on: Alzheimer's Disease
depression = conditions: 12 grams daily; placebo 0.6+/−10
panic disorder = conditions: four weeks
[5] = high-dose inositol
[6] = tested on: breast, ovarian, and lung cancer cells, mesothelioma cells
cancer cells = conditions: in vitro

For Polyunsaturated phosphatidylcholine, the “mitochondrial DNA damage” value (mitochondrial DNA) is listed as “less mitochondrial DNA damage”, the “preservation of hearing at all frequencies (3, 6, 9, 12 and 18 kHz)” value (age-related hearing loss; 300 mg/kg/day oral diet, four and six months of treatment) is listed as “statistically significant preservation of hearing” and the “overall effect on decline in hearing” value (age-related hearing loss; 300 mg/kg/day, p<0.005 versus control) is listed as “statistically significant protective effect”. The “mean fluorescence intensity (MFI), beginning of the study” value ([1]; beginning of the study) was 3165 and the “mean fluorescence intensity (MFI), end of the study” value ([1]; end of the study (six months)) was 2990.
In the case of Phosphatidylserine [PS], the mental gain (memory impairment) is listed as 12 years, the “improvement in Alzheimer's patients” value (Alzheimer's Disease [2]) is listed as “significant improvement” and the memory and learning (cognitive decline) is listed as “significantly improved”.
In the case of `O[C@H]1[C@H](O)[C@@H](O)[C@H](O)[C@@H](O)[C@H]1O` [inositol], the “improvement in OCD” value [3] is listed as “significant improvement”, the “CAMCOG subscales language and orientation” value (Alzheimer's Disease [4]; only two of the eight subscales) is listed as “significant improvement” and the “total CAMCOG score after inositol” value (Alzheimer's Disease [4]; six grams inositol daily, four weeks) is listed as 40.09+/−24.54. For the same molecule, the “total CAMCOG score, baseline” value (Alzheimer's Disease [4]; six grams inositol daily, baseline) was 31.36+/−20.90, the “improvement in depression as ranked by the Hamilton Depression Rating Scale” value (depression) was 33.4+/−6 and the “frequency and severity of panic attacks and severity of agoraphobia” value (panic disorder; versus placebo) was “declined significantly more after inositol than after placebo”. For the same molecule, the “panic attacks after treatment” value (panic disorder; decrease from 10 attacks per week, placebo 10 to 6) was 3 per week and the “increase of CSF levels of inositol” value [5] was ≤ 70%.
In the case of Phosphatidylcholine, the “difference in sensitivity between normal and tumor cells” value [6] is given as ≤ 5 fold, the “dosage tolerated by normal cells relative to leukemic cells” value (HL60 leukemic cells; 24 hours incubation) is given as 4 times and the “inhibition of HL60 leukemic cells” value (HL60 leukemic cells; versus normal human marrow cells) is given as “inhibit HL60 leukemic cells at a dosage that has no effect on normal human marrow cells”. For the same molecule, the “cytotoxicity to cancer cells” value (cancer cells) was “selectively cytotoxic”.
